In publication PMC11277489, “Novel Piperazine Derivatives of Vindoline as Anticancer Agents” (International Journal of Molecular Sciences, 2024):

Columns and labels:
[1] = system: HL-60(TB); assay: NCI60 five-dose screen, Leukemia; type: cell-based; settings: Homo sapiens; HL-60(TB), Leukemia; five-dose screen; read-out: GI50
[2] = system: K-562; assay: NCI60 five-dose screen, Leukemia; type: cell-based; settings: Homo sapiens, K562; K-562, Leukemia; five-dose screen; read-out: GI50
[3] = system: EKVX; assay: NCI60 five-dose screen, Non-small Cell Lung Cancer; type: cell-based; settings: Homo sapiens, Non-small Cell Lung Cancer, five-dose screen, read-out: GI50
[4] = system: HOP-62; assay: NCI60 five-dose screen, Non-small Cell Lung Cancer; type: cell-based; settings: Homo sapiens; HOP-62, Non-small Cell Lung Cancer; five-dose screen; read-out: GI50
[5] = system: HOP-92; assay: NCI60 five-dose screen, Non-small Cell Lung Cancer; type: cell-based; settings: Homo sapiens; HOP-92, Non-small Cell Lung Cancer; five-dose screen; read-out: GI50
[6] = system: NCI-H460; assay: NCI60 five-dose screen, Non-small Cell Lung Cancer; type: cell-based; settings: Homo sapiens; NCI-H460, Non-small Cell Lung Cancer; five-dose screen; read-out: GI50
[7] = system: HCT-116; assay: NCI60 five-dose screen, Colon Cancer; type: cell-based; settings: Homo sapiens; HCT-116, Colon Cancer; five-dose screen; read-out: GI50
[8] = system: HT29; assay: NCI60 five-dose screen, Colon Cancer; type: cell-based; settings: Homo sapiens, HT-29; HT29, Colon Cancer; five-dose screen; read-out: GI50
[9] = system: SF-268; assay: NCI60 five-dose screen, CNS Cancer; type: cell-based; settings: Homo sapiens; SF-268, CNS Cancer; five-dose screen; read-out: GI50
[10] = system: SF-539; assay: NCI60 five-dose screen, CNS Cancer; type: cell-based; settings: Homo sapiens; SF-539, CNS Cancer; five-dose screen; read-out: GI50
[11] = system: SNB-19; assay: NCI60 five-dose screen, CNS Cancer; type: cell-based; settings: Homo sapiens; SNB-19, CNS Cancer; five-dose screen; read-out: GI50
[12] = system: LOX IMVI; assay: NCI60 five-dose screen, Melanoma; type: cell-based; settings: Homo sapiens, Melanoma, five-dose screen, read-out: GI50
[13] = system: MDA-MB-435; assay: NCI60 five-dose screen, Melanoma; type: cell-based; settings: Homo sapiens; MDA-MB-435, Melanoma; five-dose screen; read-out: GI50
[14] = system: SK-MEL-5; assay: NCI60 five-dose screen, Melanoma; type: cell-based; settings: Homo sapiens; SK-MEL-5, Melanoma; five-dose screen; read-out: GI50
[15] = system: UACC-62; assay: NCI60 five-dose screen, Melanoma; type: cell-based; settings: Homo sapiens; UACC-62, Melanoma; five-dose screen; read-out: GI50
[16] = system: IGROV1; assay: NCI60 five-dose screen, Ovarian Cancer; type: cell-based; settings: Homo sapiens, IGROV-1; IGROV1, Ovarian Cancer; five-dose screen; read-out: GI50
[17] = system: OVCAR-4; assay: NCI60 five-dose screen, Ovarian Cancer; type: cell-based; settings: Homo sapiens; OVCAR-4, Ovarian Cancer; five-dose screen; read-out: GI50
[18] = system: OVCAR-5; assay: NCI60 five-dose screen, Ovarian Cancer; type: cell-based; settings: Homo sapiens; OVCAR-5, Ovarian Cancer; five-dose screen; read-out: GI50
[19] = system: NCI/ADR-RES; assay: NCI60 five-dose screen, Ovarian Cancer; type: cell-based; settings: Homo sapiens, Ovarian Cancer, five-dose screen, read-out: GI50
[20] = system: ACHN; assay: NCI60 five-dose screen, Renal Cancer; type: cell-based; settings: Homo sapiens, Renal Cancer, five-dose screen, read-out: GI50
[21] = system: CAKI-1; assay: NCI60 five-dose screen, Renal Cancer; type: cell-based; settings: Homo sapiens; CAKI-1, Renal Cancer; five-dose screen; read-out: GI50
[22] = system: TK-10; assay: NCI60 five-dose screen, Renal Cancer; type: cell-based; settings: Homo sapiens; TK-10, Renal Cancer; five-dose screen; read-out: GI50
[23] = system: DU-145; assay: NCI60 five-dose screen, Prostate Cancer; type: cell-based; settings: Homo sapiens; DU-145, Prostate Cancer; five-dose screen; read-out: GI50
[24] = system: MDA-MB231ATCC; assay: NCI60 five-dose screen, Breast Cancer; type: cell-based; settings: Homo sapiens, MDA-MB-231; MDA-MB231ATCC, Breast Cancer; five-dose screen; read-out: GI50
[25] = system: HS 578T; assay: NCI60 five-dose screen, Breast Cancer; type: cell-based; settings: Homo sapiens; HS 578T, Breast Cancer; five-dose screen; read-out: GI50
[26] = system: T-47D; assay: NCI60 five-dose screen, Breast Cancer; type: cell-based; settings: Homo sapiens, T47D; T-47D, Breast Cancer; five-dose screen; read-out: GI50
[27] = system: SR; assay: NCI60 one-dose screen (10 μM), Leukemia; type: cell-based; settings: Homo sapiens, 10 μM, Leukemia, read-out: Growth percent rate
[28] = system: NCI-H226; assay: NCI60 one-dose screen (10 μM), Non-small Cell Lung Cancer; type: cell-based; settings: Homo sapiens; 10 μM; NCI-H226, Non-small Cell Lung Cancer; read-out: Growth percent rate
[29] = system: NCI-H460; assay: as above; type: cell-based; settings: Homo sapiens; 10 μM; NCI-H460, Non-small Cell Lung Cancer; read-out: Growth percent rate
[30] = system: SNB-75; assay: NCI60 one-dose screen (10 μM), CNS Cancer; type: cell-based, human
[31] = system: U251; assay: NCI60 one-dose screen (10 μM), CNS Cancer; type: cell-based; settings: Homo sapiens, U-251; 10 μM; U251, CNS Cancer; read-out: Growth percent rate
[32] = system: UACC-62; assay: NCI60 one-dose screen (10 μM), Melanoma; type: cell-based; settings: Homo sapiens; 10 μM; UACC-62, Melanoma; read-out: Growth percent rate
[33] = system: OVCAR-5; assay: NCI60 one-dose screen (10 μM), Ovarian Cancer; type: cell-based; settings: Homo sapiens; 10 μM; OVCAR-5, Ovarian Cancer; read-out: Growth percent rate
[34] = system: NCI/ADR-RES; assay: NCI60 one-dose screen (10 μM), Ovarian Cancer; type: cell-based; settings: Homo sapiens, 10 μM, Ovarian Cancer, read-out: Growth percent rate
[35] = system: SK-OV-3; assay: NCI60 one-dose screen (10 μM), Ovarian Cancer; type: cell-based; settings: Homo sapiens; 10 μM; SK-OV-3, Ovarian Cancer; read-out: Growth percent rate
[36] = system: A498; assay: NCI60 one-dose screen (10 μM), Renal Cancer; type: cell-based; settings: Homo sapiens; 10 μM; A498, Renal Cancer; read-out: Growth percent rate
[37] = system: UO-31; assay: NCI60 one-dose screen (10 μM), Renal Cancer; type: cell-based; settings: Homo sapiens; 10 μM; UO-31, Renal Cancer; read-out: Growth percent rate
[38] = system: DU-145; assay: NCI60 one-dose screen (10 μM), Prostate Cancer; type: cell-based; settings: Homo sapiens; 10 μM; DU-145, Prostate Cancer; read-out: Growth percent rate
[39] = system: MDA-MB-231/ATCC; assay: NCI60 one-dose screen (10 μM), Breast Cancer; type: cell-based, human
[40] = system: BT-549; assay: NCI60 one-dose screen (10 μM), Breast Cancer; type: cell-based; settings: Homo sapiens; 10 μM; BT-549, Breast Cancer; read-out: Growth percent rate
[41] = system: T-47D; assay: NCI60 one-dose screen (10 μM), Breast Cancer; type: cell-based; settings: Homo sapiens, T47D; 10 μM; T-47D, Breast Cancer; read-out: Growth percent rate
[42] = system: MDA-MB-468; assay: NCI60 one-dose screen (10 μM), Breast Cancer; type: cell-based; settings: Homo sapiens; 10 μM; MDA-MB-468, Breast Cancer; read-out: Growth percent rate
[43] = system: 60 human tumor cell lines (NCI60); assay: NCI60 one-dose screen (10 μM), whole panel; type: cell-based

SMILES: CCC12C=CCN3CCC4(c5cc(NC(=O)CN6CCN(c7ccc(C(F)(F)F)cc7)CC6)c(OC)cc5N(C)C4C(O)(C(=O)OC)C1OC(C)=O)C32 (stereo not shown) [Compound 17]
- GI50 [1]: 2140 nM
- GI50 [2]: 3.02 µM
- GI50 [3]: 6.03 µM
- GI50 [4]: 3.72 µM
- GI50 [5]: 2570 nM
- GI50 [6]: 6.46 µM
- GI50 [7]: 3.72 µM
- GI50 [8]: 2090 nM
- GI50 [9]: 3.02 µM
- GI50 [10]: 4.68 µM
- GI50 [11]: 5.37 µM
- GI50 [12]: 4.27 µM
- GI50 [13]: 1950 nM
- GI50 [14]: 2400 nM
- GI50 [15]: 10.2 µM
- GI50 [16]: 10 µM
- GI50 [17]: 3.89 µM
- GI50 [18]: 10.7 µM
- GI50 [19]: 6.03 µM
- GI50 [20]: 5.62 µM
- GI50 [21]: 2630 nM
- GI50 [22]: 4.57 µM
- GI50 [23]: 6.46 µM
- GI50 [24]: 11.2 µM
- GI50 [25]: 14.8 µM
- GI50 [26]: 2190 nM
- activity at 10 µM [27]: -11.4%
- activity at 10 µM [28]: -61.9%
- activity at 10 µM [29]: 9.27%
- growth percent rate ([30]; 10 μM one-dose, SNB-75 CNS cancer, negative = lethality): < −80%
- activity at 10 µM ([30]; Homo sapiens, 10 μM, SNB-75, CNS Cancer, read-out: Growth percent rate): -87.6%
- activity at 10 µM [31]: 7.24%
- activity at 10 µM [32]: -54.8%
- activity at 10 µM [33]: -41.6%
- activity at 10 µM [34]: 0.4%
- activity at 10 µM [35]: 6.93%
- activity at 10 µM [36]: -9.05%
- activity at 10 µM [37]: 0.08%
- activity at 10 µM [38]: 24.1%
- growth percent rate ([39]; 10 μM one-dose, MDA-MB-231/ATCC breast cancer, negative = lethality): −86.10%
- activity at 10 µM ([39]; Homo sapiens, 10 μM, MDA-MB-231/ATCC, Breast Cancer, read-out: Growth percent rate): -86.2%
- activity at 10 µM [40]: -50.4%
- activity at 10 µM [41]: 9.79%
- activity at 10 µM [42]: -62.5%
- antiproliferative effect (in words) ([43]; 10 μM one-dose, NCI60): highly effective in several types of cancer
- activity at 10 µM ([43]; 10 μM, mean over 60 human cancer cell lines, read-out: Growth percent rate, Mean): -24.7%
